Data reported in ChEMBL document CHEMBL5108051, “Improving the Antimicrobial Performance of Amphiphilic Cationic Antimicrobial Peptides Using Glutamic Acid Full-Scan and Positive Charge Compensation Strategies” (J Med Chem, 2022).
Converted amounts (≈) assume the structure as drawn. The source made the active and inactive calls. No cut-off for these calls is given here. Peptide text beside a SMILES is read from it.

How the values were obtained:
Escherichia coli [1] = assay: Antibacterial activity against Escherichia coli ATCC 25922 assessed as growth inhibition measured after 18 to 24 hrs by CLSI based broth microdilution method; format: functional; conditions: time 18-24 hrs
Escherichia coli [2] = assay: Antimicrobial activity against Escherichia coli ATCC 25922 in presence of NaCl; format: functional, organism-based
Bacillus subtilis = assay: Antibacterial activity against Bacillus subtilis ATCC 23857 assessed as growth inhibition measured after 18 to 24 hrs by CLSI based broth microdilution method; format: functional; conditions: time 18-24 hrs
Escherichia coli [3] = assay: Antimicrobial activity against Escherichia coli ATCC 25922 in presence of MgCl2; format: functional, organism-based
Escherichia coli [4] = assay: Antimicrobial activity against Escherichia coli ATCC 25922 in presence of KCl; format: functional, organism-based
Erythrocyte = assay: Hemolytic activity against mouse RBC measured after 1 hrs; format: toxicity, cell-based
Pseudomonas aeruginosa = assay: Antibacterial activity against Pseudomonas aeruginosa ATCC 27853 assessed as growth inhibition measured after 18 to 24 hrs by CLSI based broth microdilution method; format: functional; conditions: time 18-24 hrs
Staphylococcus aureus [5] = assay: Antibacterial activity against Staphylococcus aureus ATCC 25923 assessed as growth inhibition measured after 18 to 24 hrs by CLSI based broth microdilution method; format: functional; conditions: time 18-24 hrs
Staphylococcus aureus [6] = assay: Antimicrobial activity against Staphylococcus aureus ATCC 25923 assessed as increase fold in increase MIC in presence of FeCl3; format: functional
Staphylococcus aureus [7] = assay: Antimicrobial activity against Staphylococcus aureus ATCC 25923 assessed as fold increase in MIC in presence of MgCl2; format: functional
Staphylococcus aureus [8] = assay: Antimicrobial activity against Staphylococcus aureus ATCC 25923 assessed as fold increase in MIC in presence of NaCl; format: functional
[9] = Cytotoxicity against human Glomerular mesenchymal cell assessed as reduction in cell viability at 0 to 128 uM incubated for 1 hr by Resazurin cell viability kit; format: toxicity, cell-based; conditions: glomerular mesenchymal cells, dose 0-128 µM
Staphylococcus aureus [10] = assay: Antimicrobial activity against Staphylococcus aureus ATCC 25923 assessed as fold increase in MIC in presence of KCl; format: functional
Klebsiella pneumoniae = assay: Antibacterial activity against Klebsiella pneumoniae ATCC 700603 assessed as growth inhibition measured after 18 to 24 hrs by CLSI based broth microdilution method; format: functional; conditions: time 18-24 hrs

For `CC(C)C[C@H](NC(=O)[C@H](CC(C)C)NC(=O)[C@H](CCCCN)NC(=O)[C@H](CCC(=O)O)NC(=O)[C@H](CC(C)C)NC(=O)[C@H](CC(C)C)NC(=O)[C@H](CCCCN)NC(=O)[C@H](C)NC(=O)[C@@H](NC(=O)[C@H](CCCCN)NC(=O)[C@@H]1CCCN1C(=O)[C@H](CC(C)C)NC(=O)[C@@H](N)Cc1ccccc1)C(C)C)C(N)=O` (H-FLPKVAKLLEKLL-NH2), the MIC (Escherichia coli [1]) was 8 µM (≈ 12.1 µg/mL), the Activity (Escherichia coli [2]) was “Active” and the MIC (Bacillus subtilis) was 8 µM (≈ 12.1 µg/mL). The Activity (Escherichia coli [3]) was “Active”, the Activity (Escherichia coli [4]) was “Active” and the MHC10 (Erythrocyte) was greater than 256 µM. The MIC (Pseudomonas aeruginosa) was 16 µM (≈ 24.2 µg/mL), the MIC (Staphylococcus aureus [5]) was 8 µM (≈ 12.1 µg/mL) and the “fold change (FC)” value (Staphylococcus aureus [6]) was 2. The “fold change (FC)” value (Staphylococcus aureus [7]) was 2, the “fold change (FC)” value (Staphylococcus aureus [8]) was 2 and the CC50 at 1 h [9] was greater than 128 µM. The “fold change (FC)” value (Staphylococcus aureus [10]) was 2 and the MIC (Klebsiella pneumoniae) was 32 µM (≈ 48.4 µg/mL).
